Results taken from PubChem BioAssay (NCI).
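Assay format: 96-well plates, 48-hour exposure. TGI marks complete inhibition of growth.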

Columns and labels:
Assay in all cases: NCI tumour cell line growth inhibition, 48 h
SNB-19 CNS = test system: SNB-19 CNS
HT29 colon = test system: HT29 colon
SF-295 CNS = test system: SF-295 CNS
KM20L2 colon = test system: KM20L2 colon
SW-620 colon = test system: SW-620 colon
ACHN renal = test system: ACHN renal
LOX IMVI melanoma = test system: LOX IMVI melanoma
OVCAR-4 ovarian = test system: OVCAR-4 ovarian
SF-539 CNS = test system: SF-539 CNS
SF-268 CNS = test system: SF-268 CNS
U251 CNS = test system: U251 CNS
UACC-257 melanoma = test system: UACC-257 melanoma
DLD-1 colon = test system: DLD-1 colon
HCC-2998 colon = test system: HCC-2998 colon
MCF7 breast = test system: MCF7 breast
MDA-N = test system: MDA-N
PC-3 prostate = test system: PC-3 prostate
HS 578T breast = test system: HS 578T breast

| Compound | TGI (SNB-19 CNS) | TGI (HT29 colon) | TGI (SF-295 CNS) | TGI (KM20L2 colon) | TGI (SW-620 colon) | TGI (ACHN renal) | TGI (LOX IMVI melanoma) | TGI (OVCAR-4 ovarian) | TGI (SF-539 CNS) | TGI (SF-268 CNS) | TGI (U251 CNS) | TGI (UACC-257 melanoma) | TGI (DLD-1 colon) | TGI (HCC-2998 colon) | TGI (MCF7 breast) | TGI (MDA-N) | TGI (PC-3 prostate) | TGI (HS 578T breast) |
| --- | --- | --- | --- | --- | --- | --- | --- | --- | --- | --- | --- | --- | --- | --- | --- | --- | --- | --- |
| CCOC(=O)c1ncn2c1[nH]c(=O)c1ccccc12 | > 100 µM | > 100 µM | > 100 µM | > 100 µM | > 100 µM | > 100 µM | > 100 µM | > 100 µM | > 100 µM | > 100 µM | > 100 µM |  |  |  |  |  |  |  |
| CC1(Br)S(=O)(=O)OCCOS1(=O)=O | > 100 µM | > 100 µM | > 100 µM | > 100 µM | > 100 µM | > 100 µM | > 100 µM | > 100 µM | > 100 µM | > 100 µM | > 100 µM | > 100 µM | > 100 µM | > 100 µM |  |  |  |  |
| C=CC(Br)(CBr)CCC(Br)C(C)(C)Br (stereo unspecified) |  | 26.8 µM | 16 µM |  | 26.6 µM | 25.3 µM | 25.5 µM | 32.3 µM | 29.9 µM | 32.3 µM | 27.6 µM | 27.6 µM | 33.4 µM |  |  |  |  |  |
| Cc1no[n+]([O-])c1/C=N/NS(=O)(=O)c1ccccc1 | > 100 µM | > 100 µM |  | > 100 µM | > 100 µM |  |  | > 100 µM | > 100 µM | > 100 µM | > 100 µM |  | > 100 µM | > 100 µM |  |  |  |  |
| Cc1ccc(S(=O)(=O)C(C#N)c2nc3ccccc3nc2N2CCOCC2)cc1 (stereo unspecified) | 95.6 µM |  |  | > 100 µM | > 100 µM | > 100 µM | 57.3 µM | 37.4 µM | > 100 µM | 71.1 µM | 35.8 µM | > 100 µM | 93.1 µM | 28.5 µM |  |  |  |  |
| C=C(C)C1Cc2c(cc(OC)c3c(=O)c4ccccc4n(C)c23)O1 (stereo unspecified) | > 100 µM | > 100 µM | > 100 µM | > 100 µM | > 100 µM | > 100 µM | > 100 µM | > 100 µM | > 100 µM | > 100 µM | > 100 µM | > 100 µM | > 100 µM | > 100 µM |  |  |  |  |
| COc1ccccc1NC(=O)CC(=O)n1nc(-c2ccccc2)c(N=Nc2ccccc2[N+](=O)[O-])c1-c1ccccc1 | > 100 µM | > 100 µM | > 100 µM | > 100 µM | > 100 µM | > 100 µM | > 100 µM | > 100 µM | > 100 µM | > 100 µM | > 100 µM | > 100 µM | > 100 µM | > 100 µM |  |  |  |  |
| Nc1ncnc2c1ccn2CC=C(CO)CO | > 100 µM | > 100 µM | > 100 µM |  | > 100 µM | > 100 µM | > 100 µM | > 100 µM | > 100 µM | > 100 µM | > 100 µM | > 100 µM |  | > 100 µM | > 100 µM | > 100 µM | > 100 µM | > 100 µM |
| COc1ccc(N2C(=O)C(C#N)=C(SC)C(C#N)C2=O)cc1 (stereo unspecified) | > 100 µM | > 100 µM | > 100 µM |  | > 100 µM | > 100 µM | > 100 µM | > 100 µM | > 100 µM | > 100 µM | > 100 µM | > 100 µM |  | > 100 µM | > 100 µM | > 100 µM | > 100 µM | 89.8 µM |
| CC(=O)[C@H]1[C@@H](OCc2ccccc2)O[N+]([O-])=C(C)[C@@H]1c1ccccc1 | > 100 µM | 33.8 µM | > 100 µM |  | 31.7 µM | 78.4 µM | 45.7 µM | > 100 µM | 45.5 µM | > 100 µM | > 100 µM | > 100 µM |  | > 100 µM | > 100 µM | > 100 µM | > 100 µM | 72.4 µM |
| C[C@]12CC[C@H]3[C@@H](CC=C4C[C@@H](O)CC[C@@]43C)[C@@H]1C[C@H](N1CCOCC1)[C@@H]2O | > 100 µM | > 100 µM | > 100 µM |  | > 100 µM | > 100 µM | > 100 µM | > 100 µM | > 100 µM | > 100 µM | > 100 µM | > 100 µM |  | > 100 µM | > 100 µM | > 100 µM | > 100 µM | > 100 µM |
| COC(=N)c1ncn(Cc2ccccc2)c1N | > 100 µM | > 100 µM | > 100 µM |  | > 100 µM | > 100 µM | > 100 µM | > 100 µM | > 100 µM | > 100 µM | > 100 µM | > 100 µM |  | > 100 µM | > 100 µM | > 100 µM | > 100 µM | > 100 µM |
| CN(C)C=NCc1ccc2c(c1)OCO2 | > 100 µM | > 100 µM | > 100 µM |  | > 100 µM | > 100 µM | > 100 µM | > 100 µM | > 100 µM | > 100 µM | > 100 µM | > 100 µM |  | > 100 µM | > 100 µM | > 100 µM | > 100 µM | > 100 µM |
| O=S(=O)(c1ccccc1)n1cnc(CCc2ccccc2)n1 |  | > 100 µM | > 100 µM | > 100 µM | > 100 µM | > 100 µM | > 100 µM | > 100 µM | > 100 µM | > 100 µM | > 100 µM | > 100 µM | > 100 µM |  |  |  |  |  |
| CC(=O)c1c2c(cc3c1CC1(C3)Cc3ccc4c(c3C1=O)CCC4)CCC2 (stereo unspecified) | > 100 µM | > 100 µM | > 100 µM |  | > 100 µM | > 100 µM | > 100 µM | > 100 µM | > 100 µM | > 100 µM | > 100 µM | 14.9 µM |  | > 100 µM | > 100 µM | > 100 µM | > 100 µM | > 100 µM |
| CC(=O)OCC1=C2C(OC(=O)C(C)C)CC3(COC(C)=O)OC3/C=C\C3(C)OC3C2OC1=O (stereo unspecified) | > 100 µM | > 100 µM | > 100 µM |  | > 100 µM | > 100 µM | > 100 µM | > 100 µM | > 100 µM | > 100 µM | > 100 µM | > 100 µM |  | > 100 µM | > 100 µM | > 100 µM | > 100 µM | > 100 µM |
